What was measured:
[1] = test system: T. cruzi Tulahuen trypomastigotes; assay: T. cruzi trypomastigote assay (Cell Titer-Glo viability, ATP luminescence); assay type: cell-based, Trypanosoma cruzi; details: for Trypomastigotes pIC50 48 hours: 48 hours incubation; for Trypomastigotes pIC50 48 hours / Trypomastigotes pIC50 72 hours: pIC50 = -log10 IC50 in molar units; for Trypomastigotes pIC50 72 hours: 72 hours incubation; for 72 pIC50 (trypomastigotes, raw data of Fig 1D): 72 hours, plotted values, censored values given without sign; for 48 pIC50 / 72 pIC50: trypomastigote assay; for 48 pIC50: 48 h; for 72 pIC50: 72 h
Summary of the method: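 Tulahuen trypomastigotes from infected LLC-MK2 culture supernatants (days 5–8) plated at 5 × 10^4 per well in DMEM/2% FBS with compound at 5 μM single-shot final or in dose response. Viability by CellTiter-Glo ATP luminescence after 10 min at room temperature, normalised to no-cell (100%) and DMSO (0%) controls.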

[2] = test system: T. cruzi intracellular amastigotes in H9c2 cells; assay: Rate-of-Kill (RoK) high-content imaging assay, amastigotes per cell (AM/CELL) and curve descriptors; assay type: cell-based, Trypanosoma cruzi; parameters: key to ME_24h / ME_48h / ME_72h: % reduction in parasite burden (cidal response); t50pct_MCC50 / t50pct_Cmax: unit not given here; details: for ME_24h: 24h; for ME_48h: 48h; for ME_72h: 72h; for t50%_Cmax / tlag_Cmax / t50pct_Cmax: at Cmax; for ME_24h (%): maximum effect at 24 h; for ME_24h (%) / ME_48h (%) / ME_72h (%): RoK assay; for ME_48h (%): maximum effect at 48 h; for ME_72h (%): maximum effect at 72 h; for ME 24h (maximum effect at 24 hours, intracellular amastigotes): maximum percentage of parasite burden reduction reached by any concentration
Summary of the method: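 H9c2 cardiomyocytes infected with T. cruzi trypomastigotes (MOI 8, 18 h), then compounds tested at 5 μM single shot or 11-point 1/3 dilution from 50 μM. DRAQ5-stained nuclei imaged over a time course. Amastigotes per cell normalised to infected cells at 4 h (0%) and non-infected cells (100%).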

TcCYP51 = details: formerly reported; cited from earlier work

| Structure (SMILES) | Trypomastigotes pIC50 48 hours [1] | Trypomastigotes pIC50 72 hours [1] | ME_24h ([2]; figure 5) | ME_48h ([2]; figure 5) | ME_72h ([2]; figure 5) | MCCE ([2]; RoK curve descriptor) [µM] | AM/CELL NORM ([2]; Time 4, sheet figure 4 A) | AM/CELL NORM ([2]; Time 24, sheet figure 4 A) | AM/CELL NORM ([2]; Time 48, sheet figure 4 A) | AM/CELL NORM ([2]; Time 72, sheet figure 4 A) | tlag_Cmax [2] [h] | t50pct_Cmax ([2]; figure 5) | tlag_Cmax ([2]; figure 5) | t50pct_MCC50 ([2]; at MCC50, figure 5) | tlag_MCC50 ([2]; at MCC50, figure 5) | MCCE ([2]; figure 5) | ME_24h (%) [2] [%] | ME_48h (%) [2] [%] | ME_72h (%) [2] [%] | ME 24h (maximum effect at 24 hours, intracellular amastigotes) [2] [%] | other results |
| --- | --- | --- | --- | --- | --- | --- | --- | --- | --- | --- | --- | --- | --- | --- | --- | --- | --- | --- | --- | --- | --- |
| CCC(=O)Nc1ccc(C(=O)Nc2ccccc2-c2ccccc2)cc1 [TCMDC-143286] | 5.9 | 6 | 59.883 | 81.1358 | 89.3246 | 0.6 | 27.4861 | 59.883 | 81.1358 | 89.3246 | 4.0 | 24 | 4 | 48 | 4 | 0.6173 | 59.9 | 81.1 | 89.3 | 59.883 | MCC50 ([2]; RoK curve descriptor): 1.9 µM; t50%_Cmax [2]: 24.0 h; t50%_MCC50 ([2]; at MCC50): 48.0 h; tlag_MCC50 ([2]; at MCC50): 4.0 h; MCC50 ([2]; figure 5, in µM): 1.852; CYP51 pIC50 (TcCYP51): < 4 |
| FC(F)(F)c1cc(C2CCCN(Cc3c[nH]c4ccccc34)C2)nc2ncnn12.O=C(O)C(O)C(O)C(=O)O (stereo not drawn) [TCMDC-143311] | 4.9 | 5.2 | 20.357 | 59.0796 | 83.5796 | 16.7 | -4.224 | 20.357 | 59.0796 | 83.5796 | 4.0 | 48 | 4 | 48 | 4 | 16.6667 | 20.4 | 59.1 | 83.6 | 20.357 | MCC50 ([2]; RoK curve descriptor): 50.0 µM; t50%_Cmax [2]: 48.0 h; t50%_MCC50 ([2]; at MCC50): 48.0 h; tlag_MCC50 ([2]; at MCC50): 4.0 h; MCC50 ([2]; figure 5): 50 µM |
| CCN(CC)S(=O)(=O)c1ccc(C(=O)Nc2cc(C)nn2-c2nc(C)c(C)c(=O)[nH]2)cc1 [TCMDC-143273] | 6.2 | 6.3 | -21.3076 | 17.6407 | 21.9061 | 0.6 | -1.286 | -40.8598 | 1.208 | 53.2799 | 24.0 | 72 | 24 | 72 | 38 | 0.6173 | -21.3 | 17.6 | 21.9 | 4.663 | MCC50 ([2]; RoK curve descriptor): 1.9 µM; t50%_Cmax [2]: 72.0 h; t50%_MCC50 ([2]; at MCC50): 72.0 h; tlag_MCC50 ([2]; at MCC50): 4.0 h; MCC50 ([2]; figure 5, in µM): 25.9259; CYP51 pIC50 (TcCYP51): < 4 |
| CC(=O)Nc1nc(-c2cc(C)ccc2C)c(C)s1 [TCMDC-143207] | < 4.3 | < 4.3 | 9.377 | 15.7339 | 56.2605 | 0.2 | -2.089 | 9.377 | 6.875 | 36.4934 | 4.0 | 72 | 4 | 72 | 4 | 0.2058 | 9.4 | 15.7 | 56.3 | 9.377 | 72 pIC50 (trypomastigotes, raw data of Fig 1D) [1]: < 4.3; 48 pIC50 ([1]; figure 1A): < 4.3; 72 pIC50 ([1]; figure 1A): < 4.3; 72 pIC50 ([1]; figure 1B): < 4.3; MCC50 ([2]; RoK curve descriptor): 5.6 µM; t50%_MCC50 ([2]; at MCC50): 72.0 h; tlag_MCC50 ([2]; at MCC50): 4.0 h; MCC50 ([2]; figure 5, in µM): 5.556; CYP51 pIC50 (TcCYP51): < 4 |
| Cc1cccc(N2CCCN(Cc3c[nH]c4ccccc34)CC2)n1 [TCMDC-143185] | 6.7 |  | 34.1143 | 65.81 | 87.1854 | 0.6 |  |  |  |  | 4.0 | 48 | 4 | 48 | 4 | 0.6173 | 34.1 | 65.8 | 87.2 | 84.3328 | MCC50 ([2]; RoK curve descriptor): 1.9 µM; AM/CELL NORM ([2]; Time 4, figure 4 A): -11.6177; AM/CELL NORM ([2]; Time 24, figure 4 A): 35.9083; AM/CELL NORM ([2]; Time 48, figure 4 A): 66.1558; AM/CELL NORM ([2]; Time 72, figure 4 A): 81.0849; t50%_Cmax [2]: 48.0 h; t50%_MCC50 ([2]; at MCC50): 48.0 h; tlag_MCC50 ([2]; at MCC50): 4.0 h; MCC50 ([2]; figure 5, in µM): 1.852; CYP51 pIC50 (TcCYP51): < 4 |
| COc1ccc(C(C)N(C)c2ncc3c(N)nc(N)nc3n2)cc1F (stereo not drawn) [TCMDC-143298] | 6.5 | 6.7 | 43.2682 | 65.4547 | 72.4604 | 0.16 | 12.1557 | 34.3534 | 59.1852 | 72.1771 | 4.0 | 64 | 4 | 56 | 4 | 0.16 | 43.3 | 65.5 | 72.5 | 45.8485 | MCC and MCCE values (in words) [2]: low MCC and MCCE values; ME (maximum effect) in RoK assay (in words) [2]: high ME value; tlag times [2]: 4 h; MCC50 ([2]; RoK curve descriptor): 1.4 µM; t50%_Cmax [2]: 64.0 h; t50%_MCC50 ([2]; at MCC50): 56.0 h; tlag_MCC50 ([2]; at MCC50): 4.0 h; MCC50 ([2]; figure 5): 1.44 µM; CYP51 pIC50 (TcCYP51): < 4 |
| O=C(NCc1ccncc1)c1ccccc1N1CCCN(C(=O)Cc2ccc(F)c(F)c2)CC1.O=C(O)C(F)(F)F.O=C(O)C(F)(F)F [TCMDC-143300] | < 4.3 | < 4.3 | -279.048 | -72.5657 | 30.5548 | 0.07 | -9.816 | -279.048 | -94.5412 | 9.95 | 24.0 | 72 | 24 | 72 | 72 | 0.06859 | -279.1 | -72.6 | 30.6 | -279.048 | 72 pIC50 (trypomastigotes, raw data of Fig 1D) [1]: < 4.3; 48 pIC50 ([1]; figure 1A): < 4.3; 72 pIC50 ([1]; figure 1A): < 4.3; 72 pIC50 ([1]; figure 1B): < 4.3; MCC50 ([2]; figure 5): 50 µM; CYP51 pIC50 (TcCYP51): 7.1 |
| Cc1cccnc1CN1CCN(CCCOc2ccc(-c3ccc(C(N)=O)cc3)cc2)CC1 [TCMDC-143291] | 4.8 | 4.4 | -149.164 | -418.951 | -403.993 | 16.7 | 9.834 | -41.6178 | -122.335 | -107.466 | 48.0 | 72 | 48 | 72 | 72 | 16.6667 | -149.2 | -419.0 | -404.0 | -41.6178 | MCC50 ([2]; figure 5): 50 µM; CYP51 pIC50 (TcCYP51): < 4 |
| COc1ccc(S(=O)(=O)Nc2ccccc2OC)cc1NC(=O)CCCc1c[nH]c2ccccc12 [TCMDC-143256] | 5 | 4.9 | -69.6887 | 10.9628 | 75.3535 | 1.9 | 3.221 | -34.0663 | 12.7734 | 63.1728 | 24.0 | 72 | 24 | 72 | 24 | 1.852 | -69.7 | 11.0 | 75.4 | -34.0663 | MCC50 ([2]; RoK curve descriptor): 5.6 µM; t50%_Cmax [2]: 72.0 h; t50%_MCC50 ([2]; at MCC50): 72.0 h; tlag_MCC50 ([2]; at MCC50): 24.0 h; MCC50 ([2]; figure 5, in µM): 5.556; CYP51 pIC50 (TcCYP51): < 4 |

Reference: PMC8318231, “Rate-of-Kill (RoK) assays to triage large compound sets for Chagas disease drug discovery: Application to GSK Chagas Box” (PLoS Neglected Tropical Diseases, 2021)
